Key:
Test in all cases: relative viability (nuclei count vs DMSO), 5 days (fraction); higher = more cells survive
[1] = tested on: RERF-LC-KJ
Method in brief: (§1)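 Values are medians from duplicate plates. Each reflects relative viability, defined as the nuclei count of treated wells over that of vehicle wells. Lung cancer cell lines in 1536-well plates were pin-tool dosed one day after seeding with one drug alone or with a fixed anchor-drug dose plus five library-drug doses (not always all listed) in √10 steps, then fixed, stained and imaged at 4× after 5 days.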

[2] = tested on: SW 900
Method in brief: as §1

[3] = tested on: LK-2
Method in brief: as §1

[4] = tested on: LU99A
Method in brief: as §1

[5] = tested on: SK-LU-1
Method in brief: as §1

[6] = tested on: NCI-H2342
Method in brief: as §1

[7] = tested on: LCLC-103H
Method in brief: as §1

[8] = tested on: NCI-H1975
Method in brief: as §1

[9] = tested on: HCC-78
Method in brief: as §1

[10] = tested on: NCI-H1666
Method in brief: as §1

[11] = tested on: LXF-289
Method in brief: as §1

[12] = tested on: NCI-H2126
Method in brief: as §1

[13] = tested on: EMC-BAC-2
Method in brief: as §1

[14] = tested on: ChaGo-K-1
Method in brief: as §1

[15] = tested on: EKVX
Method in brief: as §1

[16] = tested on: SW 1573
Method in brief: as §1

[17] = tested on: NCI-H23
Method in brief: as §1

[18] = tested on: PC-14
Method in brief: as §1

[19] = tested on: HCC-827
Method in brief: as §1

[20] = tested on: NCI-H322M
Method in brief: as §1

[21] = tested on: EPLC-272H
Method in brief: as §1

[22] = tested on: NCI-H1563
Method in brief: as §1

[23] = tested on: NCI-H2405
Method in brief: as §1

O=c1cc(-c2cccc3c2Sc2ccccc2S3)oc(N2CCOCC2)c1 + COc1cccc2cc(-c3nc([C@H]4CC[C@H](C(=O)O)CC4)n4ncnc(N)c34)[nH]c12 [OSI-027] (partner 0.5 µM)
relative viability ([1]; first compound 0.08 µM): 0.46
relative viability ([1]; first compound 0.253 µM): 0.54
relative viability ([1]; first compound 0.8 µM): 0.526
relative viability ([1]; first compound 2.53 µM): 0.499
relative viability ([1]; first compound 8 µM): 0.494
relative viability ([2]; first compound 0.08 µM): 0.573
relative viability ([2]; first compound 0.253 µM): 0.697
relative viability ([2]; first compound 0.8 µM): 0.459
relative viability ([2]; first compound 2.53 µM): 0.494
relative viability ([2]; first compound 8 µM): 0.596
relative viability ([3]; first compound 0.08 µM): 0.174
relative viability ([3]; first compound 0.253 µM): 0.189
relative viability ([3]; first compound 0.8 µM): 0.188
relative viability ([3]; first compound 2.53 µM): 0.175
relative viability ([3]; first compound 8 µM): 0.176
relative viability ([4]; first compound 0.08 µM): 0.282
relative viability ([4]; first compound 0.253 µM): 0.285
relative viability ([4]; first compound 0.8 µM): 0.308
relative viability ([4]; first compound 2.53 µM): 0.335
relative viability ([4]; first compound 8 µM): 0.303
relative viability ([5]; first compound 0.08 µM): 0.322
relative viability ([5]; first compound 0.253 µM): 0.375
relative viability ([5]; first compound 0.8 µM): 0.335
relative viability ([5]; first compound 2.53 µM): 0.364
relative viability ([5]; first compound 8 µM): 0.301
relative viability ([6]; first compound 0.08 µM): 0.569
relative viability ([6]; first compound 0.253 µM): 0.607
relative viability ([6]; first compound 0.8 µM): 0.545
relative viability ([6]; first compound 2.53 µM): 0.594
relative viability ([6]; first compound 8 µM): 0.568
relative viability ([7]; first compound 0.08 µM): 0.434
relative viability ([7]; first compound 0.253 µM): 0.489
relative viability ([7]; first compound 0.8 µM): 0.504
relative viability ([7]; first compound 2.53 µM): 0.481
relative viability ([7]; first compound 8 µM): 0.454
relative viability ([8]; first compound 0.08 µM): 0.74
relative viability ([8]; first compound 0.253 µM): 0.993
relative viability ([8]; first compound 0.8 µM): 0.793
relative viability ([8]; first compound 2.53 µM): 0.587
relative viability ([8]; first compound 8 µM): 0.503
relative viability ([9]; first compound 0.08 µM): 0.341
relative viability ([9]; first compound 0.253 µM): 0.385
relative viability ([9]; first compound 0.8 µM): 0.295
relative viability ([9]; first compound 2.53 µM): 0.344
relative viability ([9]; first compound 8 µM): 0.339
relative viability ([10]; first compound 0.08 µM): 0.838
relative viability ([10]; first compound 0.253 µM): 1.06
relative viability ([10]; first compound 0.8 µM): 0.923
relative viability ([10]; first compound 2.53 µM): 0.832
relative viability ([10]; first compound 8 µM): 0.885
relative viability ([11]; first compound 0.08 µM): 0.812
relative viability ([11]; first compound 0.253 µM): 0.811
relative viability ([11]; first compound 0.8 µM): 0.871
relative viability ([11]; first compound 2.53 µM): 0.697
relative viability ([11]; first compound 8 µM): 0.87
relative viability ([12]; first compound 0.08 µM): 0.672
relative viability ([12]; first compound 0.253 µM): 0.813
relative viability ([12]; first compound 0.8 µM): 0.581
relative viability ([12]; first compound 2.53 µM): 0.535
relative viability ([12]; first compound 8 µM): 0.828
relative viability ([13]; first compound 0.08 µM): 0.341
relative viability ([13]; first compound 0.253 µM): 0.416
relative viability ([13]; first compound 0.8 µM): 0.354
relative viability ([13]; first compound 2.53 µM): 0.392
relative viability ([13]; first compound 8 µM): 0.406
relative viability ([14]; first compound 0.08 µM): 0.524
relative viability ([14]; first compound 0.253 µM): 0.615
relative viability ([14]; first compound 0.8 µM): 0.479
relative viability ([14]; first compound 2.53 µM): 0.385
relative viability ([14]; first compound 8 µM): 0.63
relative viability ([15]; first compound 0.08 µM): 0.722
relative viability ([15]; first compound 0.253 µM): 0.812
relative viability ([15]; first compound 0.8 µM): 0.678
relative viability ([15]; first compound 2.53 µM): 0.715
relative viability ([15]; first compound 8 µM): 0.67
relative viability ([16]; first compound 0.08 µM): 0.514
relative viability ([16]; first compound 0.253 µM): 0.797
relative viability ([16]; first compound 0.8 µM): 0.703
relative viability ([16]; first compound 2.53 µM): 0.613
relative viability ([16]; first compound 8 µM): 0.728
relative viability ([17]; first compound 0.08 µM): 0.511
relative viability ([17]; first compound 0.253 µM): 0.739
relative viability ([17]; first compound 0.8 µM): 0.519
relative viability ([17]; first compound 2.53 µM): 0.54
relative viability ([17]; first compound 8 µM): 0.697
relative viability ([18]; first compound 0.08 µM): 0.884
relative viability ([18]; first compound 0.253 µM): 1.07
relative viability ([18]; first compound 0.8 µM): 0.714
relative viability ([18]; first compound 2.53 µM): 0.772
relative viability ([18]; first compound 8 µM): 1.02
relative viability ([19]; first compound 0.08 µM): 0.802
relative viability ([19]; first compound 0.253 µM): 0.877
relative viability ([19]; first compound 0.8 µM): 0.947
relative viability ([19]; first compound 2.53 µM): 0.643
relative viability ([19]; first compound 8 µM): 0.897
relative viability ([20]; first compound 0.08 µM): 0.524
relative viability ([20]; first compound 0.253 µM): 0.588
relative viability ([20]; first compound 0.8 µM): 0.618
relative viability ([20]; first compound 2.53 µM): 0.44
relative viability ([20]; first compound 8 µM): 0.543
relative viability ([21]; first compound 0.08 µM): 0.254
relative viability ([21]; first compound 0.253 µM): 0.279
relative viability ([21]; first compound 0.8 µM): 0.254
relative viability ([21]; first compound 2.53 µM): 0.251
relative viability ([21]; first compound 8 µM): 0.278
relative viability ([22]; first compound 0.08 µM): 0.728
relative viability ([22]; first compound 0.253 µM): 0.756
relative viability ([22]; first compound 0.8 µM): 0.77
relative viability ([22]; first compound 2.53 µM): 0.717
relative viability ([22]; first compound 8 µM): 0.676
relative viability ([23]; first compound 0.08 µM): 0.604
relative viability ([23]; first compound 0.253 µM): 0.647
relative viability ([23]; first compound 0.8 µM): 0.61
relative viability ([23]; first compound 2.53 µM): 0.61
relative viability ([23]; first compound 8 µM): 0.618

From the supplement of paper PMC10307832
